Test results as given in PubChem BioAssay (NCI).
“And” between values parts separate entries of the source, which are not always exact repeats. Identical values can stand only once.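 In this assay, cells in 96-well plates receive the compound at five concentrations for 48 hours. Endpoints are linearly interpolated between the surrounding concentrations. At the GI50, growth is halved. TGI denotes the concentration required for complete inhibition of growth.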

Assays:
Assay in all cases: NCI-60 cell line screen, 48 h
ACHN renal = test system: ACHN renal
HCT-15 colon = test system: HCT-15 colon
IGROV1 ovarian = test system: IGROV1 ovarian
K-562 leukemia = test system: K-562 leukemia
M14 melanoma = test system: M14 melanoma
MDA-MB-231 breast = test system: MDA-MB-231 breast
OVCAR-3 ovarian = test system: OVCAR-3 ovarian
RXF 393 renal = test system: RXF 393 renal
SK-MEL-28 melanoma = test system: SK-MEL-28 melanoma
MALME-3M melanoma = test system: MALME-3M melanoma

Row | SMILES | GI50 (ACHN renal) [µM] | TGI (ACHN renal) [µM] | GI50 (HCT-15 colon) [µM] | TGI (HCT-15 colon) [µM] | GI50 (IGROV1 ovarian) [µM] | TGI (IGROV1 ovarian) [µM] | GI50 (K-562 leukemia) [µM] | TGI (K-562 leukemia) [µM] | GI50 (M14 melanoma) [µM] | TGI (M14 melanoma) [µM] | GI50 (MDA-MB-231 breast) [µM] | TGI (MDA-MB-231 breast) [µM] | GI50 (OVCAR-3 ovarian) [µM] | TGI (OVCAR-3 ovarian) | GI50 (RXF 393 renal) [µM] | TGI (RXF 393 renal) [µM] | GI50 (SK-MEL-28 melanoma) [µM] | TGI (SK-MEL-28 melanoma) [µM] | TGI (MALME-3M melanoma) [µM] | GI50 (MALME-3M melanoma) [µM]
1 | COc1ccc(OC)c(-c2cc(-c3ccc(Cl)cc3)nn2-c2ccccc2)c1 | 46.2 | > 100 | 34.2 | > 100 | 59.5 | > 100 | 5.89 | 42.4 | 14.8 | 45.6 | 17.8 | 80 | 23.7 | 46.7 µM |  |  |  |  |  | 
2 | COc1cc(/C=C2\C[C@H]3[C@@H]4CC=C5C[C@@H](O)CC[C@]5(C)[C@H]4CC[C@]3(C)[C@H]2O)ccc1OCCN1CCCCC1 | 0.706 | 1.37 | 0.465 | 1.03 | 2.35 | > 26.3 | 0.491 | 1.32 | 0.424 | 0.954 | 0.605 | 1.39 | 0.772 | 1.53 µM | 1.04 | 2.31 | 1.06 | > 50 |  | 
3 | COc1nc(NC2OC(COC(C)=O)C(OC(C)=O)C(OC(C)=O)C2OC(C)=O)c(N=C(C)C(C)=O)c(=O)n1C (stereo not given) |  | > 100 |  | > 100 |  | > 100 |  | > 100 |  | > 100 |  |  |  | > 100 µM |  | > 100 |  |  | > 100 | 
4 | Cn1c(=O)nc2n(-c3ccc(F)c(F)c3)c3ccccc3nc-2c1=O |  | 37.2 |  | 20.4 |  | 41.4 |  | 41.2 |  | 45 |  |  |  | 10.3 µM |  | 72.5 |  |  | 24.3 | 
5 | CSc1ccc(Cc2cc(C(C)(C)C)cc(C(C)(C)C)c2O)cc1 |  | 29 |  | 27.6 |  | 26.7 |  | 26.6 |  | 28.6 |  |  |  |  |  | 26.3 |  | 30.8 | 28.7 | 
6 | Cc1ccccc1SC(/C=C/NNC1=NC(c2ccccc2)C(c2ccccc2)=NN1)c1ccccc1 (stereo not given) |  | 42.8 |  | > 100 |  | 80.2 |  | > 100 |  | 87.6 |  |  |  | 31.7 µM |  | 31.2 |  | 43 | 75.1 | 
7 | O=[N+]([O-])c1cc(I)cc(/C=N/NS(=O)(=O)c2ccc(F)cc2)c1O |  | 81.5 |  | 64.7 |  | 95.7 |  | 52.7 |  | 82.3 |  |  |  | 38.6 µM |  | 49.9 |  | 81.6 | 52.4 | 
8 | CON1C(=O)C2(CCCCC2)C(=O)C12C=CC(C)CC2 (stereo not given) |  |  |  | > 100 |  | > 100 |  | > 100 |  | > 100 |  |  |  | > 100 µM |  | > 100 |  | > 100 | > 100 | 
9 | COc1ccc2cc(C(=O)N3CCC([C@@H](C)C(=O)NCc4ccc5c(c4)OCO5)CC3)[nH]c2c1 | 48.1 | > 100 | > 100 | > 100 | > 100 | > 100 | 79.4 | > 100 | > 100 | > 100 | > 100 | > 100 | > 100 | > 100 µM |  |  | > 100 | > 100 | > 100 | > 100
10 | CC1CCCc2c1n[nH]c2CC1CC(=O)NC(=O)C1 (stereo not given) |  | > 100 |  | > 100 |  | > 100 |  | > 100 |  | > 100 |  |  |  | > 100 µM |  | > 100 |  | > 100 | > 100 | 
11 | N[C@@H](Cc1c[nH]c2ccccc12)C(=O)NC1CCN(Cc2c[nH]c3ccc(Cl)cc23)CC1 | 13.4 | 27.7 | 16.2 | 31 | 8.78 | 23.4 | 2.72 | 12.5 | 6.4 | 19.5 | 2.32 | 6 | 10.5 | 22.5 µM |  |  | 1.99 | 4.48 | 3.98 | 1.86
12 | CCCCCCCCCCNC(=S)OC |  | > 100 |  | 86.7 |  | > 100 |  | > 100 |  | > 100 |  |  |  |  |  | > 100 |  | > 100 | > 100 | 
13 | Nc1ccc(C(=O)CC2(O)C(=O)Nc3ccccc32)cc1 (stereo not given) |  | > 100 |  | > 100 |  | > 100 |  | > 100 |  | > 100 |  |  |  | > 100 µM |  | > 100 |  | > 100 | > 100 | 
14 | COc1cccc(/C=C2\N=C(Cl)OC2=O)c1O |  | > 100 |  | > 100 |  | > 100 |  | > 100 |  | > 100 |  |  |  | > 100 µM |  | > 100 |  | > 100 | > 100 | 
15 | CC(=O)N(N=O)c1ccc(N(N=O)C(C)=O)cc1 |  | > 100 |  | > 100 |  | > 100 |  | > 100 |  | > 100 |  |  |  | > 100 µM |  | > 100 |  | > 100 | > 100 | 
16 | CC(=O)NNc1ncc(C(=O)/C=C/c2ccccc2C)s1 |  | > 100 |  |  |  | > 100 |  | > 100 |  |  |  |  |  | > 100 µM |  | > 100 |  | > 100 | > 100 | 
17 | COC(=O)C(/C(=N/N)C(=O)Nc1cc(Cl)ccc1Cl)c1nc2ccc([N+](=O)[O-])cc2[nH]c1=O (stereo not given) |  | > 100 |  | > 100 |  | > 100 |  | > 100 |  | > 100 |  |  |  | > 100 µM |  |  |  | > 100 | > 100 | 
18 | C[C@]12CC[C@@H]3c4ccc(O)cc4CC[C@H]3[C@@H]1CC(Cc1ccccc1)(Cc1ccccc1)C2=O | 14.5 | 27.9 | 13.9 | 28.7 | 20.3 | 41.5 | 16.2 | > 100 | 13.1 | 26.2 | 14.1 | 28.5 | 16 | 38.3 µM |  |  | 19.8 | 36.9 | 48.9 | 23.5
19 | Cn1nc(-c2ccccc2)c2c(/C=C/c3ccc(F)cc3)onc2c1=O |  | > 100 |  | > 100 |  | > 100 |  | > 100 |  | > 100 |  |  |  |  |  | 70.7 |  | > 100 |  | 
20 | CN1C(c2ccccc2)CC(=NO)CC1c1ccccc1 (stereo not given) |  | > 100 | 41.1 | > 100 |  | > 100 | 32.6 | > 100 |  | > 100 |  |  | 24.9 | > 100 µM and 77.3 µM | 87.9 | > 100 |  | > 100 | > 100 | 
